According to patent US12077503B2, “Substituted cyclic amides and their use as herbicides” (FMC CORPORATION, priority 2015, dated 2024):

Experiments:
Assay type in all cases: in vivo
[1] = tested on: giant foxtail (Setaria faberii); assay: Test A postemergence; conditions: Setaria faberi, post-emergence, 240 h, postemergence, read-out: Foxtail, Giant plant response rating; for pest or weed control at 125 g/ha: 125 g ai/ha, visual injury on 0 to 100 scale (0 no effect, 100 complete control), approx. 10 d; for pest or weed control at 500 g/ha: 500 g ai/ha, 0 to 100 scale, 0 is no effect, 100 is complete control
Summary of the method: (§1)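 Ratings of 0 (no effect) to 100 (complete control) come from visual comparison with untreated controls roughly 10 d after treatment. Test chemicals, formulated in a non-phytotoxic solvent mixture with surfactant, were applied either as a preemergence directed soil spray on seeded soil or postemergence to one- to two-leaf plants 2 to 10 cm tall.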

Kochia (Kochia scoparia) [2] = assay: Test A postemergence; conditions: Bassia scoparia, post-emergence, 240 h, postemergence, read-out: Kochia plant response rating; for pest or weed control at 125 g/ha: 125 g ai/ha, visual injury on 0 to 100 scale (0 no effect, 100 complete control), approx. 10 d; for pest or weed control at 500 g/ha: 500 g ai/ha, 0 to 100 scale, 0 is no effect, 100 is complete control
Summary of the method: as §1

corn (Zea mays) = assay: Test A postemergence; conditions: Zea mays, post-emergence, 240 h, postemergence, read-out: Corn plant response rating; for plant injury at 125 g/ha: 125 g ai/ha, visual injury on 0 to 100 scale (0 no effect, 100 complete control), approx. 10 d; for plant injury at 500 g/ha: 500 g ai/ha, 0 to 100 scale, 0 is no effect, 100 is complete control
Summary of the method: as §1

[3] = tested on: barnyardgrass (Echinochloa crus-galli); assay: Test A postemergence; conditions: Echinochloa crus-galli, post-emergence, 240 h, postemergence, read-out: Barnyardgrass plant response rating; for pest or weed control at 125 g/ha: 125 g ai/ha, visual injury on 0 to 100 scale (0 no effect, 100 complete control), approx. 10 d; for pest or weed control at 500 g/ha: 500 g ai/ha, 0 to 100 scale, 0 is no effect, 100 is complete control
Summary of the method: as §1

[4] = tested on: wheat (Triticum aestivum); assay: Test A postemergence; conditions: Triticum aestivum, post-emergence, 240 h, postemergence, read-out: Wheat plant response rating; for plant injury at 125 g/ha: 125 g ai/ha, visual injury on 0 to 100 scale (0 no effect, 100 complete control), approx. 10 d; for plant injury at 500 g/ha: 500 g ai/ha, 0 to 100 scale, 0 is no effect, 100 is complete control
Summary of the method: as §1

[5] = tested on: ryegrass, Italian (Italian ryegrass, Lolium multiflorum); assay: Test A postemergence; conditions: Lolium multiflorum, post-emergence, 240 h, postemergence, read-out: Ryegrass, Italian plant response rating; for pest or weed control at 125 g/ha: 125 g ai/ha, visual injury on 0 to 100 scale (0 no effect, 100 complete control), approx. 10 d; for pest or weed control at 500 g/ha: 500 g ai/ha, 0 to 100 scale, 0 is no effect, 100 is complete control
Summary of the method: as §1

[6] = tested on: blackgrass (Alopecurus myosuroides); assay: Test A postemergence; conditions: Alopecurus myosuroides, post-emergence, 240 h, postemergence, read-out: Blackgrass plant response rating; for pest or weed control at 125 g/ha: 125 g ai/ha, visual injury on 0 to 100 scale (0 no effect, 100 complete control), approx. 10 d; for pest or weed control at 500 g/ha: 500 g ai/ha, 0 to 100 scale, 0 is no effect, 100 is complete control
Summary of the method: as §1

[7] = tested on: Galium (catchweed bedstraw, Galium aparine); assay: Test A postemergence; conditions: Galium, post-emergence, 240 h, postemergence, read-out: Galium plant response rating; for pest or weed control at 125 g/ha: 125 g ai/ha, visual injury on 0 to 100 scale (0 no effect, 100 complete control), approx. 10 d; for pest or weed control at 500 g/ha: 500 g ai/ha, 0 to 100 scale, 0 is no effect, 100 is complete control
Summary of the method: as §1

[8] = tested on: ragweed (common ragweed, Ambrosia elatior); assay: Test A postemergence; conditions: Ambrosia artemisiifolia, post-emergence, 240 h, postemergence, read-out: Ragweed plant response rating; for pest or weed control at 125 g/ha: 125 g ai/ha, visual injury on 0 to 100 scale (0 no effect, 100 complete control), approx. 10 d; for pest or weed control at 500 g/ha: 500 g ai/ha, 0 to 100 scale, 0 is no effect, 100 is complete control
Summary of the method: as §1

[9] = tested on: pigweed (Amaranthus retroflexus); assay: Test A postemergence; conditions: Amaranthus retroflexus, post-emergence, 240 h, postemergence, read-out: Pigweed plant response rating; for pest or weed control at 125 g/ha: 125 g ai/ha, visual injury on 0 to 100 scale (0 no effect, 100 complete control), approx. 10 d; for pest or weed control at 500 g/ha: 500 g ai/ha, 0 to 100 scale, 0 is no effect, 100 is complete control
Summary of the method: as §1

[10] = tested on: giant foxtail (Setaria faberii); assay: Test A preemergence; conditions: Setaria faberi, pre-emergence, 240 h; for pest or weed control at 125 g/ha: 125 g ai/ha; for pest or weed control at 500 g/ha: 500 g ai/ha
Summary of the method: as §1

Kochia (Kochia scoparia) [11] = assay: Test A preemergence; conditions: Bassia scoparia, pre-emergence, 240 h, preemergence, read-out: Kochia plant response rating; for pest or weed control at 125 g/ha: 125 g ai/ha, approx. 10 d; for pest or weed control at 500 g/ha: 500 g ai/ha
Summary of the method: as §1

[12] = tested on: barnyardgrass (Echinochloa crus-galli); assay: Test A preemergence; conditions: Echinochloa crus-galli, pre-emergence, 240 h; for pest or weed control at 125 g/ha: 125 g ai/ha; for pest or weed control at 500 g/ha: 500 g ai/ha, visual injury rating about 10 d after treatment, 0 to 100 scale (0 no effect, 100 complete control)
Summary of the method: as §1

[13] = tested on: ryegrass, Italian (Italian ryegrass, Lolium multiflorum); assay: Test A preemergence; conditions: Lolium multiflorum, pre-emergence, 240 h, preemergence, read-out: Ryegrass, Italian plant response rating; for pest or weed control at 125 g/ha: 125 g ai/ha, approx. 10 d; for pest or weed control at 500 g/ha: 500 g ai/ha
Summary of the method: as §1

[14] = tested on: ragweed (common ragweed, Ambrosia elatior); assay: Test A preemergence; conditions: Ambrosia artemisiifolia, pre-emergence, 240 h, preemergence, read-out: Ragweed plant response rating; for pest or weed control at 125 g/ha: 125 g ai/ha, approx. 10 d; for pest or weed control at 500 g/ha: 500 g ai/ha
Summary of the method: as §1

[15] = tested on: pigweed (Amaranthus retroflexus); assay: Test A preemergence; conditions: Amaranthus retroflexus, pre-emergence, 240 h, preemergence, read-out: Pigweed plant response rating; for pest or weed control at 125 g/ha: 125 g ai/ha, approx. 10 d; for pest or weed control at 500 g/ha: 500 g ai/ha
[16] = 0 to 100 scale where 0 is no effect and 100 is complete control
[17] = visual injury rating about 10 d after treatment, 0 to 100 scale (0 no effect, 100 complete control)
[18] = preemergence, read-out: Barnyardgrass plant response rating

CC(C)=CC1CNC(=O)C1C(=O)Nc1ccccc1S(C)(=O)=O (stereo not shown) [Compound 1057]
0%: pest or weed control at 125 g/ha [1] | pest or weed control at 500 g/ha [1] | pest or weed control at 125 g/ha (Kochia (Kochia scoparia) [2]) | pest or weed control at 500 g/ha (Kochia (Kochia scoparia) [2]) | plant injury at 125 g/ha (corn (Zea mays)) | plant injury at 500 g/ha (corn (Zea mays)) | pest or weed control at 125 g/ha [3] | pest or weed control at 500 g/ha [3] | plant injury at 125 g/ha [4] | plant injury at 500 g/ha [4] | pest or weed control at 125 g/ha [5] | pest or weed control at 500 g/ha [5] | pest or weed control at 125 g/ha [6] | pest or weed control at 500 g/ha [6] | pest or weed control at 125 g/ha [7] | pest or weed control at 500 g/ha [7] | pest or weed control at 125 g/ha [8] | pest or weed control at 500 g/ha [8] | pest or weed control at 125 g/ha [9] | pest or weed control at 500 g/ha [9] | pest or weed control at 125 g/ha ([10]; Preemergence, visual injury rating after approximately 10 d, read-out: Foxtail, Giant plant response rating (0 to 100 scale, 0 is no effect, 100 is complete control)) | pest or weed control at 500 g/ha ([10]; preemergence, visual injury rating about 10 d after treatment, 0 to 100 scale (0 no effect, 100 complete control), read-out: Foxtail, Giant plant response rating) | pest or weed control at 125 g/ha (Kochia (Kochia scoparia) [11]; [16]) | pest or weed control at 500 g/ha (Kochia (Kochia scoparia) [11]; [17]) | pest or weed control at 125 g/ha ([12]; Preemergence, visual injury rating after approximately 10 d, read-out: Barnyardgrass plant response rating (0 to 100 scale, 0 is no effect, 100 is complete control)) | pest or weed control at 500 g/ha [12, 18] | pest or weed control at 125 g/ha [13, 16] | pest or weed control at 500 g/ha [13, 17] | pest or weed control at 125 g/ha [14, 16] | pest or weed control at 500 g/ha [14, 17] | pest or weed control at 125 g/ha [15, 16] | pest or weed control at 500 g/ha [15, 17]

CN1C[C@H](c2cscn2)[C@@H](C(=O)Nc2cccc(F)c2F)C1=O [Compound 1113]
0%: pest or weed control at 125 g/ha [1] | pest or weed control at 500 g/ha [1] | pest or weed control at 125 g/ha (Kochia (Kochia scoparia) [2]) | pest or weed control at 500 g/ha (Kochia (Kochia scoparia) [2]) | plant injury at 125 g/ha (corn (Zea mays)) | plant injury at 500 g/ha (corn (Zea mays)) | pest or weed control at 125 g/ha [3] | pest or weed control at 500 g/ha [3] | plant injury at 125 g/ha [4] | plant injury at 500 g/ha [4] | pest or weed control at 125 g/ha [5] | pest or weed control at 500 g/ha [5] | pest or weed control at 125 g/ha [6] | pest or weed control at 500 g/ha [6] | pest or weed control at 125 g/ha [7] | pest or weed control at 500 g/ha [7] | pest or weed control at 125 g/ha [8] | pest or weed control at 500 g/ha [8] | pest or weed control at 125 g/ha [9] | pest or weed control at 500 g/ha [9] | pest or weed control at 125 g/ha ([10]; preemergence, 0 to 100 scale where 0 is no effect and 100 is complete control, approx. 10 d, read-out: Foxtail, Giant plant response rating) | pest or weed control at 500 g/ha ([10]; preemergence, 0 to 100 scale where 0 is no effect and 100 is complete control, read-out: Foxtail, Giant plant response rating) | pest or weed control at 125 g/ha (Kochia (Kochia scoparia) [11]; [16]) | pest or weed control at 500 g/ha (Kochia (Kochia scoparia) [11]; [16]) | pest or weed control at 125 g/ha ([12]; preemergence, 0 to 100 scale where 0 is no effect and 100 is complete control, approx. 10 d, read-out: Barnyardgrass plant response rating) | pest or weed control at 500 g/ha [12, 18] | pest or weed control at 125 g/ha [13, 16] | pest or weed control at 500 g/ha [13, 16] | pest or weed control at 125 g/ha [14, 16] | pest or weed control at 500 g/ha [14, 16] | pest or weed control at 125 g/ha [15, 16] | pest or weed control at 500 g/ha [15, 16]
